The values below come from patent US9375005B2, “5-halogenopyrazole indanyl carboxamides” (BAYER CROPSCIENCE AG, priority 2012, dated 2016).

In one data set the test system is Puccinia recondita. The data set can be described thus: In vivo preventive test on Puccinia recondita (brown rust on wheat). Conditions: wheat plants sprayed 24 h before contamination, grading 12 days after contamination. Here is the method: Plants, used as controls, are treated with the mixture of acetone/tween/DMSO/water not containing the active material. After 24 hours, the plants are contaminated by spraying the leaves with an aqueous suspension of Puccinia recondita spores (100 000 spores per ml). […] Grading (% of efficacy) is carried out 12 days after the contamination, in comparison with the control plants.

Another data set deals with Alternaria brassicae. Put plainly: In vivo preventive test on Alternaria brassicae (leaf spot on radish). Conditions: dose 500 ppm; radish plants sprayed 24 h before contamination; grading 6 days after contamination vs control plants. Here is the method: Radish plants (“Pernod Clair” variety), sown in starter cups on a 50/50 peat soil-pozzolana substrate and grown at 17° C., are treated at the cotyledon stage by spraying with the active ingredient prepared as described above. Plants, used as controls, are treated with the mixture of acetone/tween/DMSO/water not containing the active material. After 24 hours, the plants are contaminated by spraying the cotyledons with an aqueous suspension of Alternaria brassicae spores (50 000 spores per ml). The spores are collected from a 15-day-old culture. […] Grading (% of efficacy) is carried out 6 days after the contamination, in comparison with the control plants.

For a further data set, the system named is Uromyces appendiculatus. Put plainly: In vivo preventive test on Uromyces appendiculatus (bean rust). Conditions: bean plants sprayed 24 h before contamination, grading 11 days after contamination. Here is the method:
Bean plants (“Saxa” variety), sown in starter cups on a 50/50 peat soil-pozzolana substrate and grown at 24° C., are treated at the 2-leaf stage (9 cm height) by spraying with the active ingredient prepared as described above. Plants, used as controls, are treated with the mixture of acetone/tween/DMSO/water not containing the active material. After 24 hours, the plants are contaminated by spraying the leaves with an aqueous suspension of Uromyces appendiculatus spores (150 000 spores per ml). […] Grading (% of efficacy) is carried out 11 days after the contamination, in comparison with the control plants.

Data set [1] is described as follows: Measurement of log P values by HPLC on reversed phase columns (EEC directive 79/831 Annex V.A8). The data set is classed as physicochemical.
In another data set the test system is Sphaerotheca fuliginea. The data set can be described thus: In vivo preventive test on Sphaerotheca fuliginea (powdery mildew on cucurbits). The following applies: gherkin plants sprayed 24 h before contamination, grading 12 days after contamination. Here is the method:
Gherkin plants (“Vert petit de Paris” variety), sown in starter cups on a 50/50 peat soil-pozzolana substrate and grown at 24° C., are treated at the Z11 cotyledon stage by spraying with the active ingredient prepared as described above. Plants, used as controls, are treated with the mixture of acetone/tween/DMSO/water not containing the active material. After 24 hours, the plants are contaminated by spraying the cotyledons with an aqueous suspension of Sphaerotheca fuliginea spores (100 000 spores per ml). The spores are collected from infected plants. The contaminated to gherkin plants are incubated at about 20° C. and at 70-80% relative humidity. Grading (% of efficacy) is carried out 12 days after the contamination, in comparison with the control plants.

In a further data set the test system is Pyrenophora teres. Put plainly: In vivo preventive test on Pyrenophora teres (net blotch on barley). Conditions: barley plants sprayed 24 h before contamination, grading 14 days after contamination. Here is the method:
Barley plants (“Plaisant” variety), sown in starter cups on a 50/50 peat soil-pozzolana substrate and grown at 22° C., are treated at the 1-leaf stage (10 cm height) by spraying with the active ingredient prepared as described above. Plants, used as controls, are treated with the mixture of acetone/tween/DMSO/water not containing the active material. After 24 hours, the plants are contaminated by spraying the leaves with an aqueous suspension of Pyrenophora teres spores (12 000 spores per ml). The spores are collected from a 12-day-old culture. […] Grading (% of efficacy) is carried out 14 days after the contamination, in comparison with the control plants.

In the next data set the test system is Septoria tritici. The data set can be described thus: In vivo preventive test on Septoria tritici (leaf spot on wheat). The following applies: dose 500 ppm; wheat plants sprayed 24 h before contamination; grading 24 days after contamination. Here is the method: Wheat plants (“Scipion” variety), sown in starter cups on a 50/50 peat soil-pozzolana substrate and grown at 22° C., are treated at the 1-leaf stage (10 cm height) by spraying with the active ingredient prepared as described above. Plants, used as controls, are treated with the mixture of acetone/tween/DMSO/water not containing the active material. After 24 hours, the plants are contaminated by spraying the leaves with an aqueous suspension of cryopreserved Septoria tritici spores (500 000 spores per ml). […] Grading (% of efficacy) is carried out 24 days after the contamination, in comparison with the control plants.

As for `CON=C1c2cccc(NC(=O)c3c(C(F)F)nn(C)c3F)c2CC1(C)C` (mixture of isomers) [Example 61], the Eff. % in the data set with Puccinia recondita (dose 500 ppm) was 86%; in the data set with Alternaria brassicae, 75%.

In the case of `CCC1(C)CCc2c(NC(=O)c3c(C(F)F)nn(C)c3Cl)cccc21` (single isomer, unassigned) [Example 53], the Eff. % in the data set on Puccinia recondita (dose 500 ppm) is given as 100%; in the data set with Uromyces appendiculatus (dose 500 ppm), 100%; with Alternaria brassicae it was 79%; in the data set with Sphaerotheca fuliginea (dose 500 ppm), 98%; in the data set on Pyrenophora teres (dose 500 ppm), 80%. For the same compound, in data set [1] (method marked [a]), the logP is 4.04[a].

As to `CC(C)C1Cc2c(NC(=O)c3c(C(F)F)nn(C)c3Cl)cccc2C1(C)C` (stereo not drawn) [Example 6], the Eff. % in the data set on Puccinia recondita (dose 500 ppm) turned out to be 100%; in the data set with Uromyces appendiculatus (dose 500 ppm), 100%; in the data set on Alternaria brassicae it was 78%; with Sphaerotheca fuliginea (dose 500 ppm), 100%. The logP in data set [1] (method marked [a]) is 4.95[a].

Regarding `CC1CC(C)(C)c2c(Cl)ccc(NC(=O)c3c(C(F)F)nn(C)c3Cl)c21` (stereo not drawn) [Example 12], the Eff. % in the data set with Puccinia recondita (dose 500 ppm) is given as 93%; in the data set with Uromyces appendiculatus (dose 500 ppm) it was 96%; in the data set on Alternaria brassicae, 94%. The logP in data set [1] (method marked [a]) is 4.6[a];; in data set [1] (method marked [b]), 4.53[b].

For the compound `Cn1nc(C(F)F)c(C(=O)Nc2cccc3c2CCC32CC2)c1Cl` [Example 14], the Eff. % with Puccinia recondita (dose 500 ppm) was 100%; with Uromyces appendiculatus (dose 500 ppm), 100%; in the data set on Alternaria brassicae, 97%. In addition, the logP in data set [1] (method marked [a]) is 3.58[a].

`CCCCON=C1CCc2c(NC(=O)c3c(C(F)F)nn(C)c3Cl)cccc21` [Example 22] yielded an Eff. % with Alternaria brassicae of 86%. For the same compound, the logP in data set [1] (method marked [a]) was 4.24[a].

Regarding `CCCON=C1CCc2c(NC(=O)c3c(C(F)F)nn(C)c3Cl)cccc21` [Example 23], the Eff. % with Uromyces appendiculatus (dose 500 ppm) is given as 82%; in the data set with Septoria tritici it was 90%; in the data set on Sphaerotheca fuliginea (dose 500 ppm), 70%. For the same compound, the logP in data set [1] (method marked [a]) is 3.76[a].

Consider `CCCCON=C1CCc2c(NC(=O)c3c(C(F)F)nn(C)c3F)cccc21` [Example 24], for which, in the data set with Septoria tritici, the Eff. % came out at 80%. Moreover, in data set [1] (method marked [a]), the logP was 3.96[a].

Take `CCON=C1CCc2c(NC(=O)c3c(C(F)F)nn(C)c3Cl)cccc21` [Example 26]: the Eff. % in the data set on Puccinia recondita (dose 500 ppm) came out at 94%; in the data set on Uromyces appendiculatus (dose 500 ppm) it was 100%; with Alternaria brassicae, 72%. Moreover, the logP in data set [1] (method marked [a]) is 3.27[a].

Turning to `CCCON=C1CCc2c(NC(=O)c3c(C(F)F)nn(C)c3F)cccc21` [Example 28], the Eff. % with Alternaria brassicae is 71%. Besides, the logP in data set [1] (method marked [a]) was 3.52[a].

In the case of `CCC1Cc2cccc(NC(=O)c3c(C(F)F)nn(C)c3Cl)c2C1` (stereo not drawn) [Example 30], the Eff. % with Puccinia recondita (dose 500 ppm) was 100%; in the data set with Uromyces appendiculatus (dose 500 ppm) it was 100%; in the data set on Septoria tritici it was 70%; with Pyrenophora teres (dose 500 ppm), 83%. In data set [1] (method marked [a]), the logP is 4.01[a].

Regarding `CC1CCc2cccc(NC(=O)c3c(C(F)F)nn(C)c3Cl)c21` (stereo not drawn) [Example 31], the Eff. % with Puccinia recondita (dose 500 ppm) came to 100%; with Uromyces appendiculatus (dose 500 ppm) it was 100%; in the data set on Septoria tritici, 80%. Besides, the logP in data set [1] (method marked [a]) was 3.44[a].

`CC1CC(C)(C)c2c(F)ccc(NC(=O)c3c(C(F)F)nn(C)c3Cl)c21` (stereo not drawn) [Example 37]: the Eff. % amounted to 100% in the data set with Uromyces appendiculatus (dose 500 ppm), 97% in the data set on Alternaria brassicae, 100% in the data set with Sphaerotheca fuliginea (dose 500 ppm) and 75% in the data set on Pyrenophora teres (dose 500 ppm). Further, in data set [1] (method marked [a]), the logP was 4.11[a].

For the compound `CC(C)CC1CCc2c(NC(=O)c3c(C(F)F)nn(C)c3Cl)cccc21` (stereo not drawn) [Example 40], the Eff. % was 100% in the data set on Puccinia recondita (dose 500 ppm), 100% in the data set with Uromyces appendiculatus (dose 500 ppm), 97% with Alternaria brassicae and 80% in the data set on Pyrenophora teres (dose 500 ppm). The logP in data set [1] (method marked [a]) was 4.87[a].

Turning to `CC(C)CC1CCc2c(NC(=O)c3c(C(F)F)nn(C)c3F)cccc21` (stereo not drawn) [Example 41], the Eff. % in the data set on Puccinia recondita (dose 500 ppm) is recorded as 97%; with Uromyces appendiculatus (dose 500 ppm), 100%; in the data set on Alternaria brassicae, 95%. For the same compound, the logP in data set [1] (method marked [a]) is 4.59[a].

For the compound `CC(C)C1Cc2cccc(NC(=O)c3c(C(F)F)nn(C)c3Cl)c2C1C` (stereo not drawn) [Example 47], the Eff. % with Puccinia recondita (dose 500 ppm) worked out at 83%; in the data set on Uromyces appendiculatus (dose 500 ppm), 86%; in the data set with Septoria tritici it was 80%. Moreover, in data set [1] (method marked [a]), the logP is 4.68[a].

As to `CC(C)C1Cc2cccc(NC(=O)c3c(C(F)F)nn(C)c3Cl)c2C1C` (stereo not drawn) [Example 48], the Eff. % came to 100% in the data set on Puccinia recondita (dose 500 ppm), 100% in the data set on Uromyces appendiculatus (dose 500 ppm), 80% with Septoria tritici and 100% in the data set on Sphaerotheca fuliginea (dose 500 ppm). In addition, the logP in data set [1] (method marked [a]) was 4.49[a].

Turning to `CC1CC2(CC2)c2cccc(NC(=S)c3c(C(F)F)nn(C)c3Cl)c21` (stereo not drawn) [Example 49], the Eff. % was 94% in the data set with Puccinia recondita (dose 500 ppm), 100% in the data set on Uromyces appendiculatus (dose 500 ppm), 71% with Septoria tritici and 83% with Pyrenophora teres (dose 500 ppm). The logP in data set [1] (method marked [a]) was 3.85[a].

`CC(C)C1Cc2cccc(NC(=O)c3c(C(F)F)nn(C)c3Cl)c2C1C` (stereo not drawn) [Example 56]: the figures for the Eff. % in the data set on Puccinia recondita (dose 500 ppm), with Uromyces appendiculatus (dose 500 ppm) and with Septoria tritici were 83%, 86% and 80%, respectively. Moreover, the logP in data set [1] (method marked [a]) was 4.68[a].

Take `CC(C)CC1CCc2c(NC(=O)c3c(C(F)F)nn(C)c3Cl)cccc21` (stereo not drawn) [Example 66]: the Eff. % with Puccinia recondita (dose 500 ppm) is listed as 100%; in the data set with Uromyces appendiculatus (dose 500 ppm), 100%; with Alternaria brassicae, 97%; with Pyrenophora teres (dose 500 ppm), 80%.

On to `CC1CC(CC(C)(C)C)c2cccc(NC(=O)c3c(C(F)F)nn(C)c3Cl)c21` (stereo not drawn) [Example 69], for which the Eff. % in the data set with Puccinia recondita (dose 500 ppm) turned out to be 98%; in the data set on Uromyces appendiculatus (dose 500 ppm) it was 100%; in the data set with Septoria tritici, 71%; in the data set on Sphaerotheca fuliginea (dose 500 ppm), 100%. Moreover, the logP in data set [1] (method marked [a]) was 5.22[a].

Turning to `CCON=C1CC(C)c2c(NC(=O)c3c(C(F)F)nn(C)c3F)cccc21` (stereo not drawn) [Example 83], the Eff. % stood at 88% in the data set on Puccinia recondita (dose 500 ppm), 95% in the data set on Uromyces appendiculatus (dose 500 ppm), 86% in the data set with Alternaria brassicae and 83% in the data set with Pyrenophora teres (dose 500 ppm). In data set [1] (method marked [a]), the logP is 3.18[a].

`CC1CC(CC(C)(C)C)c2cccc(NC(=S)c3c(C(F)F)nn(C)c3F)c21` (stereo not drawn) [Example 87]: the Eff. % turned out to be 98% in the data set with Puccinia recondita (dose 500 ppm), 100% in the data set with Uromyces appendiculatus (dose 500 ppm), 75% in the data set on Alternaria brassicae and 98% in the data set with Sphaerotheca fuliginea (dose 500 ppm). The logP in data set [1] (method marked [a]) is 5.08[a].

With `CCCON=C1CC(C)c2c(NC(=O)c3c(C(F)F)nn(C)c3F)cccc21` (stereo not drawn) [Example 91], the Eff. % amounted to 94% in the data set on Puccinia recondita (dose 500 ppm), 100% in the data set with Uromyces appendiculatus (dose 500 ppm), 86% in the data set on Alternaria brassicae and 83% with Pyrenophora teres (dose 500 ppm). Besides, the logP in data set [1] (method marked [a]) was 3.67[a].

Regarding `CCC1Cc2c(NC(=S)c3c(C(F)F)nn(C)c3Cl)cccc2C1(C)C` (stereo not drawn) [Example 105], the Eff. % in the data set on Puccinia recondita (dose 100 ppm) is given as 100%; with Uromyces appendiculatus (dose 100 ppm), 100%; in the data set on Sphaerotheca fuliginea (dose 100 ppm), 94%; in the data set on Pyrenophora teres (dose 100 ppm), 70%. Besides, the logP in data set [1] (method marked [a]) is 4.58[a].

Regarding `CCC1Cc2c(NC(=S)c3c(C(F)F)nn(C)c3F)cccc2C1(C)C` (stereo not drawn) [Example 106], the Eff. % in the data set with Puccinia recondita (dose 100 ppm) worked out at 100%; in the data set on Uromyces appendiculatus (dose 100 ppm), 94%; in the data set on Sphaerotheca fuliginea (dose 100 ppm) it was 89%; with Pyrenophora teres (dose 100 ppm), 80%. In addition, the logP in data set [1] (method marked [a]) was 4.46[a].
